# Measured values: patent publication US20240050406A1, “COMPOSITION COMPRISING OXIRACETAM FOR PREVENTING OR TREATING MUSCULAR DISEASE” (KSB TUGEN INC., priority 2021, published 2024)
# Key:
# [1] = test system: animal model in which muscular atrophy was induced by dexamethasone; assay: Comparison with racetam-based drugs in dexamethasone muscular atrophy model (Experimental Example 4); format: in vivo, ICR mice
# Source text: For an experimental group in the present invention, oxiracetam having a structure of Formula 1 was purchased from Tokyo Chemical Industry (Japan; Product No. 00398, CAS RN:62613-82-5, purity: 96%) and used. Other racetam drugs, such as aniracetam and nepiracetam, were purchased from Bide Pharmatech (W-44; China, Product Nos. BD114391, BD140804, purity: 96%), piracetam, phenylpiracetam, corulacetam and pramiracetam were purchased from Tokyo Chemical Industry (Japan, Product Nos. P2880, P2604, C3689, P2061, purity: 96%), levetiracetam was purchased from Roeun China, Product No. R025860, purity: 96%), brivaracetam was purchased from R&D Systems (USA, Product No. 7271, purity: 96%), rolziracetam and faroracetam were purchased from Targetmol (USA, Product Nos. T16783, T19624, purity: 96%), and rolipram was purchased from Aladdin (MAT; China, Product No. R129674, purity: 96%).
# As experimental animals, 7-week-old male ICR mice were purchased and used. […]
# To measure grip strength, a grip strength test was performed. […] After measurement before drug administration (day 0) and on day 20 after drug administration began, grip strength variation (%) after drug administration began (day 20) with respect to that before drug administration (day 0) was calculated.
# The lean body mass of the gastrocnemius muscle (GS) and the lean body mass of the tibialis anterior (TA) for each group were measured every 7 days. […] During photographing, the respiratory rates and body temperatures of the animal models were measured with an animal monitoring system (SA Instruments, USA).
# The whole body of the animal model was photographed through dual energy X-ray absorptiometry (DEXA) using iNSiGHT VET DXA (Osteosys, KR), and the lean body mass of each of the gastrocnemius muscle (GS) and the tibialis anterior (TA) was measured and calculated from the two-dimensional images of the gastrocnemius muscle (GS) and the tibialis anterior (TA) by a program using the region of interest (ROI). […]
# [2] = test system: model of sarcopenia caused by aging; assay: Aging animal model, 22-month-old mice (Experimental Example 2); format: in vivo, C57BL/6J mice
# Source text: For an experimental group in the present invention, oxiracetam having a structure of Formula 1 was purchased from Tokyo Chemical Industry (Japan; Product No. 00398, CAS RN:62613-82-5, purity: 96%) and used.
# As a model of sarcopenia caused by aging, 22-month-old male C57BL/6J mice were used. Until the day of the experiment, general feed (EEGJ30060: Cargill Agri Purina, Seongnam, Korea) and water were sufficiently supplied to the experimental animals, and the animals were acclimated for 1 week under an environment of a temperature of 23±2° C., a humidity of 55±10%, and a light-dark cycle of 12 hours-12 hours and used in the experiment.
# The animals were randomly divided into groups of 10 animals, such as a control (vehicle, n=10), and 30, 100, and 300 mg/kg/day oxiracetam-administered groups (n=10 per concentration). To the oxiracetam-administered group, oxiracetam was orally administered using a Zonde needle for 90 days once a day at a dose of 30, 100, or 300 mg/kg/day. During the same period, no drug was administered to the control group, and 100 μL of normal saline was orally administered at a time.
# To measure grip strength, a grip strength test was performed. The maximum force presented when the forelimbs of an animal model of each group could no longer hold the rod by pulling the tail horizontally while holding the tail of the animal model and holding the rod of a device with both front paws was considered to be grip strength (N). The grip strength was measured once every 3 days, and after repeating five measurements at one time, the average value was shown. Grip strength adaptation training was performed at least three times before drug administration.
# The lean body mass of the gastrocnemius muscle (GS) and the lean body mass of the tibialis anterior (TA) for each group was measured every 7 days. Specifically, animal models of each group were anesthetized using 3% isoflurane, fixed to a photographing bed and then photographed. During photographing, the respiratory rates and body temperatures of the animal models were measured with an animal monitoring system (SA Instruments, USA).
# The whole body of the animal model was photographed through dual energy X-ray absorptiometry (DEXA) using iNSiGHT VET DXA (Osteosys, KR), and the lean body mass of each of the gastrocnemius muscle (GS) and the tibialis anterior (TA) was measured and calculated from the two-dimensional images of the gastrocnemius muscle (GS) and the tibialis anterior (TA) by a program using the region of interest (ROI).
# At 90 days after the start of the experiment, an exercise stress test was performed. First, the experimental animals in each group were acclimatized to a treadmill machine twice before measurement (1st round: inclination 10°, 10 minutes at 5 m/min and 10 minutes at 10 m/min; 2nd round: inclination 10°, 5 minutes at 5 m/min and 15 munutes at 10 m/min). On the day of the experiment, the experimental animals were allowed to run for 20 minutes at an initial speed of 10 m/min at an inclination of 10°, and then the speed was increased by 2 m/min every 2 minutes, and then the running distance and time were measured with the end point when the experimental animal stayed for 10 seconds without running.
# Statistical processing was performed using GraphPad Prism (GraphPad Software Inc., San Diego, CA, USA). The results of each repeated experiment were expressed as mean±standard error of mean, and analyzed using the analysis of variance (Tukey's test), and statistical significance was acknowledged when the P-value was 0.05 or less.
# [3] = drug 30 mg/kg/day (piracetam 100 mg/kg/day) oral 21 days + dexamethasone, DEXA every 7 days
# [4] = Oxi 30, Oxi 100, Oxi 300 mg/kg/day oral, DEXA every 7 days, compared to control
compound,measurement,setting,value
"NC(=O)CN1CC(O)CC1=O (racemic) [oxiracetam, (RS)-2-(4-hydroxy-2-oxopyrrolidin-1-yl)acetamide]",change in grip strength,"[1]; drug 30 mg/kg/day (piracetam 100 mg/kg/day) oral 21 days + dexamethasone 10 mg/kg i.p. day 7-21, day 20 vs day 0",recovers to greater than the control
same,lean body mass of the gastrocnemius muscle (GS),[1]; [3],recover the lean body mass of the gastrocnemius muscle (GS) to the control (vehicle) level
same,lean body mass of the tibialis anterior (TA),[1]; [3],recover the lean body mass of the tibialis anterior (TA) to the control (vehicle) level
same,lean body mass of the gastrocnemius muscle (GS),[2]; [4],increased rather than decreased
same,lean body mass of the tibialis anterior (TA),[2]; [4],increased rather than decreased
same,"physical performance capacity (athletic ability), treadmill running distance and time","[2]; Oxi 30, Oxi 100, Oxi 300, day 90, compared to control",increased rather than decreased
same,"physical performance capacity (athletic ability), treadmill running distance and time","[2]; Oxi 300 group (300 mg/kg/day), day 90",significantly increased
same,lean body mass of the gastrocnemius muscle (GS),"[2]; Oxi 300 group (300 mg/kg/day), from week 7",significantly increased
same,change in grip strength,"[2]; oxiracetam 30, 100 and 300 mg/kg/day oral 90 days, versus control (vehicle)",suppressed and rather increased
